# Earlier results in PMC9762682, “Tocotrienols: Exciting Biological and Pharmacological Properties of Tocotrienols and Naturally Occurring Compounds, Part II” (Annals of clinical case reports, 2022).
# Read-outs that look alike come from different tables or passages of the source.
# Columns and labels:
# TNF-α [1] = details: LPS-induced macrophages of wild type (C57BL/6) control group
# TNF-α [2] = details: LPS-induced macrophages of PPAR-α knockout female mice
# Hela cells = test system: Hela cells; design: method as in PMID 29606130; value at effective dose: unit not given here; details: for effective dose / percentage of control at effective dose / value at effective dose: 48 h;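 for IC50: anti-proliferation of cancer cells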
# Liver cancer cells = test system: Liver cancer cells; design: method as in PMID 29606130; value at effective dose: unit not given here; details: for effective dose / percentage of control at effective dose / value at effective dose: 48 h
# Pancreas cancer cells = test system: Pancreas cancer cells; design: method as in PMID 29606130; value at effective dose: unit not given here; details: for effective dose / percentage of control at effective dose / value at effective dose: 48 h
# Prostate cancer cells = test system: Prostate cancer cells; design: method as in PMID 29606130; value at effective dose: scale not given here; details: for effective dose / percentage of control at effective dose / value at effective dose: 48 h;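 for IC50: anti-proliferation of cancer cells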
# Breast cancer cells = test system: Breast cancer cells; design: method as in PMID 29606130; value at effective dose: unit not given here;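 for IC50: anti-proliferation of cancer cells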
# Lung cancer cells = test system: Lung cancer cells; design: method as in PMID 29606130; value at effective dose: unit not given here
# Melanoma cells = test system: Melanoma cells; design: method as in PMID 29606130
# B-Lymphocyte cells = test system: B-Lymphocyte cells; design: method as in PMID 29606130; value at effective dose: unit not given here;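 for IC50: anti-proliferation of cancer cells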
# T-cells (Jurkat) = test system: T-cells (Jurkat); design: method as in PMID 29606130; value at effective dose: unit not given here
# people with T2DM = details: for Fasting Glucose, Post-dose, percentage of control (pre-dose) in parentheses / MDA, Post-dose / MDA, Post-dose, percentage of control (pre-dose) in parentheses / hs-CRP, Post-dose / hs-CRP, Post-dose, percentage of control (pre-dose) in parentheses / Fasting Glucose, Post-dose: serum; for Fasting Glucose, Post-dose, percentage of control (pre-dose) in parentheses / MDA, Post-dose / MDA, Post-dose, percentage of control (pre-dose) in parentheses / hs-CRP, Post-dose / hs-CRP, Post-dose, percentage of control (pre-dose) in parentheses / Fasting HbA1c, Post-dose / Fasting HbA1c, Post-dose, percentage of control (pre-dose) in parentheses / HOMA-IR, Post-dose / HOMA-IR, Post-dose, percentage of control (pre-dose) in parentheses: two capsules/d for 24-weeks; for Fasting Glucose, Post-dose: two capsules/d for 24-weeks (δ-tocotrienol 250 mg, vitamin D3 5000 IU, resveratrol 250 mg per capsule)
smiles,measurement,setting,value
"Cc1cc2nc3c(=O)[nH]c(=O)nc-3n(C[C@H](O)[C@H](O)[C@H](O)CO)c2cc1C [(−) Riboflavin, Riboflavin]",effect on secretion of TNF-α,TNF-α [1],inhibition
same,effect on secretion of TNF-α,TNF-α [2],activation
same,effective dose,Hela cells,40 µM
same,percentage of control at effective dose,Hela cells,64%
same,value at effective dose,Hela cells,21.0 ± 1.0
same,effective dose,Liver cancer cells,80 µM
same,percentage of control at effective dose,Liver cancer cells,91%
same,value at effective dose,Liver cancer cells,74.0 ± 2.0
same,effective dose,Pancreas cancer cells,40 µM
same,percentage of control at effective dose,Pancreas cancer cells,67%
same,value at effective dose,Pancreas cancer cells,40.0 ± 2.0
same,IC50,Prostate cancer cells,80 µM
same,percentage of control at IC50 dose,Prostate cancer cells,55%
same,effective dose,Prostate cancer cells,40 µM
same,percentage of control at effective dose,Prostate cancer cells,61%
same,value at effective dose,Prostate cancer cells,20.0 ± 2.0
same,effective dose,Breast cancer cells,80 µM
same,percentage of control at effective dose,Breast cancer cells,61%
same,value at effective dose,Breast cancer cells,12.7 ± 1.5
same,effective dose,Lung cancer cells,10 µM
same,percentage of control at IC50 dose,Lung cancer cells,28%
same,percentage of control at effective dose,Lung cancer cells,23%
same,value at effective dose,Lung cancer cells,7.7 ± 2.1
same,effective dose,Melanoma cells,40 µM
same,percentage of control at effective dose,Melanoma cells,91%
same,IC50,B-Lymphocyte cells,80 µM
same,effective dose,B-Lymphocyte cells,20 µM
same,percentage of control at IC50 dose,B-Lymphocyte cells,55%
same,percentage of control at effective dose,B-Lymphocyte cells,69%
same,value at effective dose,B-Lymphocyte cells,19.3 ± 3.1
same,effective dose,T-cells (Jurkat),20 µM
same,percentage of control at effective dose,T-cells (Jurkat),32%
same,value at effective dose,T-cells (Jurkat),142.0 ± 4.4
C=C[C@H]1C[N@@]2CC[C@H]1C[C@H]2[C@H](O)c1ccnc2ccc(OC)cc12 [Quinine Sulphate],IC50,Hela cells,10 µM
same,percentage of control at IC50 dose,Hela cells,24%
same,effective dose,Hela cells,20 µM
same,percentage of control at effective dose,Hela cells,19%
same,IC50,Liver cancer cells,80 µM
same,percentage of control at IC50 dose,Liver cancer cells,58%
same,effective dose,Liver cancer cells,80 µM
same,percentage of control at effective dose,Liver cancer cells,58%
same,value at effective dose,Liver cancer cells,47.7 ± 2.1
same,effective dose,Pancreas cancer cells,40 µM
same,percentage of control at effective dose,Pancreas cancer cells,78%
same,value at effective dose,Pancreas cancer cells,35.0 ± 3.0
same,IC50,Prostate cancer cells,20 µM
same,percentage of control at IC50 dose,Prostate cancer cells,36%
same,effective dose,Prostate cancer cells,20 µM
same,percentage of control at effective dose,Prostate cancer cells,36%
same,value at effective dose,Prostate cancer cells,15.7 ± 2.1
same,effective dose,Breast cancer cells,80 µM
same,percentage of control at effective dose,Breast cancer cells,60%
same,value at effective dose,Breast cancer cells,12.3 ± 2.3
same,effective dose,Lung cancer cells,40 µM
same,percentage of control at effective dose,Lung cancer cells,66%
same,IC50,Melanoma cells,80 µM
same,effective dose,Melanoma cells,20 µM
same,percentage of control at IC50 dose,Melanoma cells,50%
same,percentage of control at effective dose,Melanoma cells,56%
same,effective dose,B-Lymphocyte cells,80 µM
same,percentage of control at effective dose,B-Lymphocyte cells,19%
same,IC50,T-cells (Jurkat),80 µM
same,effective dose,T-cells (Jurkat),40 µM
same,percentage of control at IC50 dose,T-cells (Jurkat),50%
same,percentage of control at effective dose,T-cells (Jurkat),77%
same,value at effective dose,T-cells (Jurkat),267.7 ± 29.7
C=C(NC(=O)C(=C)NC(=O)c1csc(C2=N[C@@H]3c4csc(n4)[C@H]4NC(=O)c5csc(n5)[C@H]([C@](C)(O)[C@@H](C)O)NC(=O)[C@H]5CSC(=N5)/C(=C/C)NC(=O)[C@H]([C@@H](C)O)NC(=O)c5csc(n5)[C@]3(CC2)NC(=O)[C@H](C)NC(=O)C(=C)NC(=O)[C@H](C)NC(=O)[C@H]([C@@H](C)CC)N[C@@H]2C=Cc3c([C@H](C)O)cc(nc3[C@H]2O)C(=O)O[C@@H]4C)n1)C(N)=O [Thiostrepton],IC50,Hela cells,10 µM
same,percentage of control at IC50 dose,Hela cells,24%
same,effective dose,Hela cells,40 µM
same,percentage of control at effective dose,Hela cells,16%
same,value at effective dose,Hela cells,8.7 ± 1.5
same,IC50,Liver cancer cells,2.5 µM
same,percentage of control at IC50 dose,Liver cancer cells,53%
same,effective dose,Liver cancer cells,10 µM
same,percentage of control at effective dose,Liver cancer cells,8%
same,value at effective dose,Liver cancer cells,6.7 ± 2.2
same,IC50,Pancreas cancer cells,5 µM
same,percentage of control at IC50 dose,Pancreas cancer cells,29%
same,effective dose,Pancreas cancer cells,10 µM
same,percentage of control at effective dose,Pancreas cancer cells,16%
same,value at effective dose,Pancreas cancer cells,7.7 ± 0.6
same,IC50,Prostate cancer cells,2.5 µM
same,percentage of control at IC50 dose,Prostate cancer cells,53%
same,effective dose,Prostate cancer cells,5 µM
same,percentage of control at effective dose,Prostate cancer cells,19%
same,value at effective dose,Prostate cancer cells,7.0 ± 1.7
same,IC50,Breast cancer cells,20 µM
same,effective dose,Breast cancer cells,10 µM
same,percentage of control at IC50 dose,Breast cancer cells,16%
same,percentage of control at effective dose,Breast cancer cells,29%
same,value at effective dose,Breast cancer cells,6.7 ± 0.6
same,IC50,Lung cancer cells,5 µM
same,effective dose,Lung cancer cells,5 µM
same,percentage of control at IC50 dose,Lung cancer cells,48%
same,percentage of control at effective dose,Lung cancer cells,28%
same,value at effective dose,Lung cancer cells,7.0 ± 2.0
same,effective dose,Melanoma cells,5 µM
same,percentage of control at IC50 dose,Melanoma cells,34%
same,percentage of control at effective dose,Melanoma cells,13%
same,effective dose,B-Lymphocyte cells,2.5 µM
same,percentage of control at IC50 dose,B-Lymphocyte cells,23%
same,percentage of control at effective dose,B-Lymphocyte cells,23%
same,value at effective dose,B-Lymphocyte cells,15.7 ± 4.0
same,effective dose,T-cells (Jurkat),2.5 µM
same,percentage of control at IC50 dose,T-cells (Jurkat),5%
same,percentage of control at effective dose,T-cells (Jurkat),5%
same,value at effective dose,T-cells (Jurkat),21.3 ± 2.1
C=C1CC[C@H](O)C/C1=C/C=C1\CCC[C@]2(C)[C@@H]([C@H](C)CCCC(C)C)CC[C@@H]12 [Vitamin D3],"Fasting Glucose, Post-dose, percentage of control (pre-dose) in parentheses",people with T2DM,95%
same,"MDA, Post-dose",people with T2DM,3.48 µmol/L
same,"MDA, Post-dose, percentage of control (pre-dose) in parentheses",people with T2DM,97%
same,"hs-CRP, Post-dose",people with T2DM,3.09 mg/L
same,"hs-CRP, Post-dose, percentage of control (pre-dose) in parentheses",people with T2DM,92%
same,"Fasting Glucose, Post-dose",people with T2DM,7.16 mmol/L
same,"Fasting HbA1c, Post-dose",people with T2DM,8.19%
same,"Fasting HbA1c, Post-dose, percentage of control (pre-dose) in parentheses",people with T2DM,93%
same,"HOMA-IR, Post-dose",people with T2DM,4.74
same,"HOMA-IR, Post-dose, percentage of control (pre-dose) in parentheses",people with T2DM,89%
Oc1ccc(/C=C/c2cc(O)cc(O)c2)cc1 [trans-Resveratrol],"Fasting Glucose, Post-dose, percentage of control (pre-dose) in parentheses",people with T2DM,94%
same,"MDA, Post-dose",people with T2DM,3.49 µmol/L
same,"MDA, Post-dose, percentage of control (pre-dose) in parentheses",people with T2DM,91%
same,"hs-CRP, Post-dose",people with T2DM,3.28 mg/L
same,"hs-CRP, Post-dose, percentage of control (pre-dose) in parentheses",people with T2DM,89%
same,"Fasting Glucose, Post-dose",people with T2DM,6.98 mmol/L
same,"Fasting HbA1c, Post-dose",people with T2DM,7.86%
same,"Fasting HbA1c, Post-dose, percentage of control (pre-dose) in parentheses",people with T2DM,92%
same,"HOMA-IR, Post-dose",people with T2DM,4.98
same,"HOMA-IR, Post-dose, percentage of control (pre-dose) in parentheses",people with T2DM,93%
